Data published in PMC10504751, “Chalcone/1,3,4-Oxadiazole/Benzimidazole hybrids as novel anti-proliferative agents inducing apoptosis and inhibiting EGFR & BRAFV^600E” (BMC Chemistry, 2023).
Where “and” joins values, the source holds several entries; their conditions need not be identical. Identical values can stand only once.

Assays:
[1] = system: Panc-1, A-549, MCF-7 and HT-29; assay: Propidium iodide anti-proliferative assay, four cell lines together; assay type: cell-based; settings: Homo sapiens; range over Panc-1, A-549, MCF-7, HT-29; read-out: IC50 range on the four tested cell lines
Method: The propidium iodide (PI) tests^31, 32 were further used for assessment of the IC50 of all synthesized compounds and compared to Doxorubicin as a positive control against four cancer cell lines; pancreatic cancer cell line (Panc-1), epithelial line cancer cell (A-549), breast cancer cell line (MCF-7), and colon cancer cell line (HT-29).
Using the propidium iodide fluorescence assay with doxorubicin as the reference drug, IC50 of the 24 compounds 7a-x, was carried out according to a previously reported procedure^31, 32 against a panel of four human cancer cell lines; epithelial cancer cell line (A-549), breast cancer cell line (MCF-7), colon cancer cell line (HT-29) and pancreas cancer cell line (Panc-1). Compounds 7a-x were incubated with cancer cells for 2 days at different concentrations. See Appendix A.
To explore the antiproliferative potential of compounds propidium iodide fluorescence assay was performed using different cell lines (melanoma cancer cell line LOX-IMVI, pancreatic cancer cell line (Panc-1), epithelial line cancer cell (A-549), breast cancer cell line (MCF-7), and colon cancer cell line (HT-29). To calculate the total nuclear DNA, a fluorescent dye (propidium iodide, PI) is used which can attach to the DNA,^9,^10 thus offering a quick and precise technique. PI cannot pass through the cell membrane and its signal intensity can be considered as directly proportional to the quantity of cellular DNA. Cells whose cell membranes are damaged or have changed permeability are counted as dead ones. The assay was performed by seeding the cells of different cancer cell lines at a density of 3000-7500 cells/well (in 200µl medium) in culture plates followed by incubation for 24h at 37 °C in humidified 5% CO2/95% air atmospheric conditions. […] A fluorometer (Polar-Star BMG Tech) was used to record the readings at excitation and emission wavelengths of 530 and 620 nm for each well. The percentage cytotoxicity of compounds was calculated using the following formula:
Where ATC= Absorbance of treated cells and AC= Absorbance of control. […]

Bcl-2 in MCF-7 = assay: Bcl-2 inhibition assay; settings: for Bcl-2 Conc: MCF-7; for Bcl-2 Fold reduction: MCF-7, vs untreated control
Method: All reagents were thoroughly mixed without foaming before use. The microwells were washed twice with approximately 300 µL Wash Buffer per well with the thorough aspiration of microwell contents between washes. Care was taken not to scratch the surface of the microwells. After the last wash, the wells were emptied and microwell strips were tapped on an absorbent pad or paper towel to remove excess Wash Buffer. The microwell strips were used immediately after washing or placed upside down on a wet absorbent paper for not longer than 15 min. Wells were not allowed to dry. A total of 100 µL of Sample Diluent was added in duplicate to all standard wells and the blank wells. Standard (1:2 dilution) in duplicate was prepared ranging from 32 to 0.5 ng/mL. A total of 100 µL of Sample Diluent, in duplicate, was added to the blank wells. A total of 80 µL of Sample Diluent, in duplicate, was added to the sample wells. A total of 20 µL of each sample, in duplicate, was added to the designated wells. A total of 50 µL of diluted biotin was added, conjugated to all wells, including the blank wells. It was covered with a plate cover and incubated at room temperature on a microplate shaker at 100 rpm for 2 h. The plate cover was removed and the wells were emptied. Microwell strips were washed times as described in Step 2. A total of 100 µL of diluted Streptavidin-HRP was added to all wells, including the blank wells. It was covered with a plate cover and incubated at room temperature on a microplate shaker at 100 rpm for 1 h. The plate cover was removed and the wells were emptied. Microwell strips were washed three times, as described in Step 2. A total of 100 µL of mixed TMB Substrate Solution was pipetted into all wells, including the blanks. The microwell strips were incubated at room temperature (18 ◦C to 25 ◦C) for about 15 min, on a rotator set at 100 rpm. Direct exposure to intense light was avoided. The point at which the substrate reaction is stopped was determined by the ELISA reader. Many ELISA readers record absorbance only up to 2.0 O.D. Therefore, the color development within individual microwells was watched by the person running the assay, and the substrate reaction was stopped before positive wells were no longer properly detectable. The enzyme reaction was stopped by quickly pipetting 100 µL of Stop Solution into each well, including the blank wells. It was important that the Stop Solution was spread quickly and uniformly throughout the microwells to inactivate the enzyme completely. Results were read immediately after the Stop Solution was added or within one hour if the microwell strips were stored at 2–8 ◦C in the dark. The absorbance of each microwell was read on a spectrophotometer using 450 nm as the primary wavelength.

BAX in MCF-7 = assay: BAX activation assay; settings: for BAX Conc: MCF-7; for BAX Fold change: MCF-7, vs untreated control
Method: All reagents were brought to room temperature for at least 30 min before opening (except the human BAX-α Standard). Human BAX-α Standard solution was not be left at room temperature for more than 10 min. Duplicates of all standards, controls, and samples were run. The Assay Layout Sheet was used to determine the number of wells to be used, and any remaining wells were put with the desiccant back into the pouch, and the ziplock was sealed. Unused wells were stored at 4 ◦C. A total of 100 µL of Assay Buffer was pipetted into the S0 (0 pg/mL standard) wells. A total of 100 µL of Standards #1 through #6 was pipetted into the appropriate wells. A total of 100 µL of the samples was pipetted into the appropriate wells. The plate was gently tapped to mix the contents. The plate was sealed and incubated at room temperature on a plate shaker for 1 h at ~500 rpm. The contents of the wells were emptied and washed by adding 400 µL of wash solution to every well. The wash was repeated four more times for a total of five washes. After the final wash, the wells were emptied or aspirated and firmly the plate on a lint-free paper towel was tapped to remove any remaining wash buffer. A total of 100 µL of yellow antibody was pipetted into each well, except the Blank. The plate was sealed and incubated at room temperature on a plate shaker for 1 h at ~500 rpm. The contents of the wells were emptied and washed by adding 400 µL of wash solution to every well. The wash was repeated four more times for a total of five washes. After the final wash, the wells were emptied or aspirated, and the plate was firmly tapped on a lint-free paper towel to remove any remaining wash buffer. A total of 100 µL of blue Conjugate was added to each well, except the Blank. The plate was sealed and incubated at room temperature on a plate shaker for 30 min at ~500 rpm. The contents of the wells were emptied and washed by adding 400 µL of wash solution to every well. The wash was repeated four more times for a total of five washes. After the final wash, the wells were emptied or aspirated and the plate was firmly tapped on a lint-free paper towel to remove any remaining wash buffer. A total of 100 µL of Substrate Solution was pipetted into each well. It was incubated for 30 min at room temperature on a plate shaker at ~500 rpm. A total of 100 µL Stop Solution was pipetted into to each well. The plate reader was blanked against the Blank wells, and the optical density was read at 450 nm. The average net optical density (OD) bound for each standard and sample was calculated by subtracting the average Blank OD from the average OD for each standard and sample. Using linear graph paper, the Average Net OD for each standard versus BAX concentration in each standard were plotted. A straight line was approximated through the points. The concentration of BAX in the unknowns could be determined by interpolation.

MCF-7 cells [2] = assay: Cell cycle analysis; assay type: cell-based, human; settings: MCF-7, IC50 (0.95 µM), 24 h
Excerpt: From the previous results, it was concluded that compound 7k might arrest cells at G1/S and prevent it from entering G2/M phase as indicated by decreased percentage of accumulation of cells in G2/M phase compared to control.

[3] = system: Cytochrome C in MCF-7 human breast cancer cell line; assay: Cytochrome C assay; assay type: cell-based; settings: for Cytochrome C Fold change: MCF-7, vs untreated control; for Cytochrome C Conc: MCF-7 breast cancer cells
MCF-7 cells [4] = assay: Annexin V-FITC/PI apoptosis detection; assay type: cell-based, human; settings: MCF-7, IC50 (0.95 µM), 24 h
Method: To further study the root for cytotoxic activity of compound 7k, Annexin V-FITC/PI assay method^40, 41 was used to investigate its capability to induce apoptosis.
Apoptosis was determined by flow cytometry based on the Annexin-V-fluoresce in isothiocyanate (FITC) and propidium iodide (PI) staining kit (BD Pharmingen, San Diego, USA) See Appendix A.
Apoptosis was determined by flow cytometry based on the Annexin-V-fluoresce in isothiocyanate (FITC) and propidium iodide (PI) staining kit (BD Pharmingen, San Diego, USA.^15^,1^6 […] Apoptotic cells were defined as Annexin-V-positive. […] Treated cells were trypsinized, washed twice with PBS and transferred into micro centrifuge tubes for centrifugation at1000 rpm for 5 min at room temperature, then resuspended in binding buffer, 5 μL of FITC and PI were added to per eppendorf tube, cells were vortexed, incubated for 15 min at room temperature in dark. Subsequently, cells were analyzed by flow cytometry (Becton Dickinson, Franklin Lakes, and USA).

Row | Structure (SMILES) | IC50 [1] | Bcl-2 Conc (Bcl-2 in MCF-7) | Bcl-2 Fold reduction (Bcl-2 in MCF-7) | BAX Conc (BAX in MCF-7) | BAX Fold change (BAX in MCF-7) | percentage of cells in G2/M phase (MCF-7 cells [2]; control 12.22%) | percentage of cells in S phase (MCF-7 cells [2]; control 29.51%) | percentage of cells in G0-G1 phase (MCF-7 cells [2]; control 58.27%) | Cytochrome C Fold change [3] | Cytochrome C Conc [3] | early apoptosis (MCF-7 cells [4]) | late apoptosis (MCF-7 cells [4]) | necrosis (MCF-7 cells [4])
1 | COc1ccc(-c2nc3cc(-c4nnc(SCC(=O)Nc5ccc(C(=O)/C=C/c6ccccc6)cc5)o4)ccc3[nH]2)cc1 [Compound 7k, 2-{5-[2-(4-Methoxyphenyl)-1 H-benzo[d]imidazol-5-yl]-1,3,4-oxadiazol-2-ylthio}-N-{4-[(E)-3-phenylacryloyl]phenyl}acetamide] | 950 to 1400 nM | 0.94 ng/mL and 0.940 ng/mL | 5.4 fold | 279.50 pg/mL and 279.500 pg/mL | 33 fold and 33.0 fold | 3.19% | 34.86% | 61.95% | 14 fold and 14.00 fold | 0.660 ng/mL | 28.71% | 12.63% | 3.05%
2 | COc1ccc(-c2nc3cc(-c4nnc(SCC(=O)Nc5ccc(C(=O)/C=C/c6ccc(Cl)cc6)cc5)o4)ccc3[nH]2)cc1 [Compound 7l, 2-{5-[2-(4-Methoxyphenyl)-1 H-benzo[d]imidazol-5-yl]-1,3,4-oxadiazol-2-ylthio}-N-{4-[(E)-3-(4-chlorophenyl)acryloyl]phenyl}acetamide] | 1100 to 1650 nM | 0.97 ng/mL and 0.975 ng/mL | 5.2 fold | 271 pg/mL and 271.600 pg/mL | 32 fold and 32.0 fold |  |  |  | 13 fold and 13.00 fold | 0.595 ng/mL |  |  | 
3 | COc1ccc(/C=C/C(=O)c2ccc(NC(=O)CSc3nnc(-c4ccc5[nH]c(-c6ccc(OC)cc6)nc5c4)o3)cc2)cc1 [Compound 7m, 2-{5-[2-(4-Methoxyphenyl)-1 H-benzo[d]imidazol-5-yl]-1,3,4-oxadiazol-2-ylthio}-N-{4-[(E)-3-(4-methoxyphenyl)acryloyl]phenyl}acetamide] |  | 1.050 ng/mL | 4.9 fold | 268.200 pg/mL | 31.5 fold |  |  |  | 11 fold and 11.00 fold | 0.515 ng/mL |  |  | 
